Data on eleven molecules can be found in patent US10519152B2, “Compounds and their use in treating cancer” (AstraZeneca AB, priority 2017, dated 2019).

This test deals with T1, Estrogen Receptor (ERα) in MCF-7 human ductal carcinoma breast cell line (Homo sapiens, UniProt P03372).
T1 construct: endogenous in cells; host or cells: MCF-7
T1 sequence (P03372 1-595): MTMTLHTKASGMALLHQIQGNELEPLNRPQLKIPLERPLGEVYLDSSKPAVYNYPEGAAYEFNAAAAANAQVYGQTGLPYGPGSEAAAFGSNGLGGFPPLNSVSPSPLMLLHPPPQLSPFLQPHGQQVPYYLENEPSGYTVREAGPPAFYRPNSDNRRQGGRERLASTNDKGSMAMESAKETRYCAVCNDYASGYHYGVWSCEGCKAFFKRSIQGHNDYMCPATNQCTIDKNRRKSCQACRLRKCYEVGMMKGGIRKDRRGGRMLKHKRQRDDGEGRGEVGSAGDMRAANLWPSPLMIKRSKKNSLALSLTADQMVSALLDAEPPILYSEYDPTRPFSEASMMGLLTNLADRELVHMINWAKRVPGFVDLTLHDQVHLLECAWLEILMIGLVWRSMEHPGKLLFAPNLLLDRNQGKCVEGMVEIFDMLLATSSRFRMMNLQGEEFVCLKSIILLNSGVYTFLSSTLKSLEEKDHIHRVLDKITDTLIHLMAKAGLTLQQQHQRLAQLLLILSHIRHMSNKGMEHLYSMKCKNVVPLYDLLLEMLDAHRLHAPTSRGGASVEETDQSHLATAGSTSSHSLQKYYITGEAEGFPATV
As to the kind of experiment: MCF-7 ER degradation assay (cell based immuno-fluorescence). Conditions: MCF-7 cells; for ER degradation ≥ 90% at 0.3 μM: ER degradation by fulvestrant at 0.3 μM is defined as 100%; for DC50: 18-22 hours incubation, 50% reduction of ERα expression, single experiment or average of two or more, read-out: MCF-7 ER degradation IC50. In short, it runs like this: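 MCF-7 human ductal carcinoma breast cells were seeded at 3.75×10^4 cells per mL (40 μL per well) in 384 well plates with phenol red free DMEM containing 2 mM L-Glutamine and 5% (v/v) Charcoal/Dextran treated foetal calf serum. After overnight culture, compounds were acoustically dispensed, incubated 18-22 hours, then cells were formaldehyde-fixed and immunostained for ERα.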

Where a name gives a salt, the structure may show the parent alone.

In the case of `CC[C@H](C)[C@H](N)C(=O)O[C@@H]1C[C@@H](C(=O)NCc2ccc(-c3scnc3C)cc2)N(C(=O)[C@@H](NC(=O)COCCOCCOCCOc2cc(F)c([C@@H]3c4[nH]c5ccccc5c4C[C@@H](C)N3CC(C)(C)F)c(F)c2)C(C)(C)C)C1` [Example 99, (3R,5S)-1-((S)-2-(2-(2-(2-(2-(3,5-Difluoro-4-((1R,3R)-2-(2-fluoro-2-methylpropyl)-3-methyl-2,3,4,9-tetrahydro-1H-pyrido[3,4-b]indol-1-yl)phenoxy)ethoxy)ethoxy)ethoxy)acetamido)-3,3-dimethylbutanoyl)-5-((4-(4-methylthiazol-5-yl)benzyl)carbamoyl)pyrrolidin-3-yl L-isoleucinate Formate], the “ER degradation ≥ 90% at 0.3 μM” value is reported as “•” and the DC50 turned out to be 1.6 nM.

Consider `Cc1ncsc1-c1ccc(CNC(=O)[C@@H]2C[C@@H](O)CN2C(=O)[C@@H](NC(=O)COCCOCCOCCOc2cc(F)c([C@@H]3c4[nH]c5ccccc5c4C[C@@H](C)N3CC(F)(F)CO)c(F)c2)C(C)(C)C)cc1` [Example 71, (2S,4R)-1-((S)-2-(tert-Butyl)-14-(4-((1R,3R)-2-(2,2-difluoro-3-hydroxypropyl)-3-methyl-2,3,4,9-tetrahydro-1H-pyrido[3,4-b]indol-1-yl)-3,5-difluorophenoxy)-4-oxo-6,9,12-trioxa-3-azatetradecanoyl)-4-hydroxy-N-(4-(4-methylthiazol-5-yl)benzyl)pyrrolidine-2-carboxamide], for which the “ER degradation ≥ 90% at 0.3 μM” value is recorded as “•” and the DC50 came to 0.5 nM.

In the case of `Cc1ncsc1-c1ccc([C@H](C)NC(=O)[C@@H]2C[C@@H](O)CN2C(=O)[C@@H](NC(=O)COCCOCCOCCOc2cc(F)c([C@@H]3c4[nH]c5ccccc5c4C[C@@H](C)N3CC(C)(C)F)c(F)c2)C(C)(C)C)cc1` [Example 3, (2S,4R)-1-((S)-2-(tert-Butyl)-14-(3,5-difluoro-4-((1R,3R)-2-(2-fluoro-2-methylpropyl)-3-methyl-2,3,4,9-tetrahydro-1H-pyrido[3,4-b]indol-1-yl)phenoxy)-4-oxo-6,9,12-trioxa-3-azatetradecanoyl)-4-hydroxy-N—((S)-1-(4-(4-methylthiazol-5-yl)phenyl)ethyl)pyrrolidine-2-carboxamide], the “ER degradation ≥ 90% at 0.3 μM” value is reported as “••” and the DC50 stood at 0.3 nM.

Take `Cc1ncsc1-c1ccc(CNC(=O)[C@@H]2C[C@@H](O)CN2C(=O)[C@@H](NC(=O)COCCCCCOc2cc(F)c([C@@H]3c4[nH]c5ccccc5c4C[C@@H](C)N3CC3(F)CC3)c(F)c2)C(C)(C)C)cc1` [Example 79, (2S,4R)-1-((S)-2-(2-((5-(3,5-difluoro-4-((1R,3R)-2-((1-fluorocyclopropyl)methyl)-3-methyl-2,3,4,9-tetrahydro-1H-pyrido[3,4-b]indol-1-yl)phenoxy)pentyl)oxy)acetamido)-3,3-dimethylbutanoyl)-4-hydroxy-N-(4-(4-methylthiazol-5-yl)benzyl)pyrrolidine-2-carboxamide]: the “ER degradation ≥ 90% at 0.3 μM” value is “•” and the DC50 amounted to 2 nM.

With `Cc1ncsc1-c1ccc(CNC(=O)[C@@H]2C[C@@H](O)CN2C(=O)[C@@H](NC(=O)COCCNC(=O)/C=C/c2cc(F)c([C@@H]3c4[nH]c5ccccc5c4C[C@@H](C)N3CC(C)(C)F)c(F)c2)C(C)(C)C)cc1` [Example 62, (2S,4R)-1-((S)-2-(2-(2-((E)-3-(3,5-difluoro-4-((1R,3R)-2-(2-fluoro-2-methylpropyl)-3-methyl-2,3,4,9-tetrahydro-1H-pyrido[3,4-b]indol-1-yl)phenyl)acrylamido)ethoxy)acetamido)-3,3-dimethylbutanoyl)-4-hydroxy-N-(4-(4-methylthiazol-5-yl)benzyl)pyrrolidine-2-carboxamide, Trifluoroacetic Acid], the “ER degradation ≥ 90% at 0.3 μM” value was “•” and the DC50 was found to be 0.6 nM.

`Cc1ncsc1-c1ccc(CNC(=O)[C@@H]2C[C@@H](O)CN2C(=O)[C@@H](NC(=O)COCCCCCCCOc2cc(F)c([C@@H]3c4[nH]c5ccccc5c4C[C@@H](C)N3CC(F)(F)CO)c(F)c2)C(C)(C)C)cc1` [Example 78, (2S,4R)-1-((S)-2-(2-((7-(4-((1R,3R)-2-(2,2-Difluoro-3-hydroxypropyl)-3-methyl-2,3,4,9-tetrahydro-1H-pyrido[3,4-b]indol-1-yl)-3,5-difluorophenoxy)heptyl)oxy)acetamido)-3,3-dimethylbutanoyl)-4-hydroxy-N-(4-(4-methylthiazol-5-yl)benzyl)pyrrolidine-2-carboxamide]: the “ER degradation ≥ 90% at 0.3 μM” value is listed as “••” and the DC50 came out at 0.6 nM.

`Cc1ncsc1-c1ccc(CNC(=O)[C@@H]2C[C@@H](O)CN2C(=O)[C@@H](NC(=O)COCCOCCOCCOCCOCC(=O)Nc2ccc([C@@H]3c4[nH]c5ccccc5c4C[C@@H](C)N3CC(C)(C)F)cc2)C(C)(C)C)cc1` [Example 56, N^1-(4-((1R,3R)-2-(2-fluoro-2-methylpropyl)-3-methyl-2,3,4,9-tetrahydro-1H-pyrido[3,4-b]indol-1-yl)phenyl)-N^17—((S)-1-((2S,4R)-4-hydroxy-2-((4-(4-methylthiazol-5-yl)benzyl)carbamoyl)pyrrolidin-1-yl)-3,3-dimethyl-1-oxobutan-2-yl)-3,6,9,12,15-pentaoxaheptadecanediamide, Trifluoroacetic Acid]: the “ER degradation ≥ 90% at 0.3 μM” value is on record as “••” and the DC50 amounted to 1.5 nM.

Turning to `Cc1ncsc1-c1ccc(CNC(=O)[C@@H]2C[C@@H](O)CN2C(=O)[C@@H](NC(=O)COCCO[C@H](C)[C@@H](C)OCCOc2cc(F)c([C@@H]3c4[nH]c5ccccc5c4C[C@@H](C)N3CC(C)(C)F)c(F)c2)C(C)(C)C)cc1` [Example 80, (2S,4R)-1-((2S,10R,11R)-2-(tert-butyl)-14-(3,5-difluoro-4-((1R,3R)-2-(2-fluoro-2-methylpropyl)-3-methyl-2,3,4,9-tetrahydro-1H-pyrido[3,4-b]indol-1-yl)phenoxy)-10,11-dimethyl-4-oxo-6,9,12-trioxa-3-azatetradecanoyl)-4-hydroxy-N-(4-(4-methylthiazol-5-yl)benzyl)pyrrolidine-2-carboxamide], the “ER degradation ≥ 90% at 0.3 μM” value is reported as “••” and the DC50 is 0.7 nM.

Regarding `Cc1ncsc1-c1ccc(CNC(=O)[C@@H]2C[C@@H](OC(=O)[C@H](C)NC(=O)[C@@H](N)C(C)C)CN2C(=O)[C@@H](NC(=O)COCCOCCOCCOc2cc(F)c([C@@H]3c4[nH]c5ccccc5c4C[C@@H](C)N3CC(C)(C)F)c(F)c2)C(C)(C)C)cc1` [Example 100, (3R,5S)-1-((S)-2-(2-(2-(2-(2-(3,5-Difluoro-4-((1R,3R)-2-(2-fluoro-2-methylpropyl)-3-methyl-2,3,4,9-tetrahydro-1H-pyrido[3,4-b]indol-1-yl)phenoxy)ethoxy)ethoxy)ethoxy)acetamido)-3,3-dimethylbutanoyl)-5-((4-(4-methylthiazol-5-yl)benzyl)carbamoyl)pyrrolidin-3-yl L-valyl-L-alaninate Formate], the “ER degradation ≥ 90% at 0.3 μM” value is given as “••” and the DC50 amounted to 0.4 nM.

Turning to `Cc1ncsc1-c1ccc(CNC(=O)[C@@H]2C[C@@H](O)CN2C(=O)[C@@H](NC(=O)COCc2ccc(COc3cc(F)c([C@@H]4c5[nH]c6ccccc6c5C[C@@H](C)N4CC(C)(C)F)c(F)c3)cn2)C(C)(C)C)cc1` [Example 86, (2S,4R)-1-((S)-2-(2-((5-((3,5-Difluoro-4-((1R,3R)-2-(2-fluoro-2-methylpropyl)-3-methyl-2,3,4,9-tetrahydro-1H-pyrido[3,4-b]indol-1-yl)phenoxy)methyl)pyridin-2-yl)methoxy)acetamido)-3,3-dimethylbutanoyl)-4-hydroxy-N-(4-(4-methylthiazol-5-yl)benzyl)pyrrolidine-2-carboxamide], the “ER degradation ≥ 90% at 0.3 μM” value was “••” and the DC50 turned out to be 0.6 nM.

For `Cc1ncsc1-c1ccc(CNC(=O)[C@@H]2C[C@@H](O)CN2C(=O)[C@@H](NC(=O)COCCOCCOCCOc2cc(F)c([C@@H]3c4[nH]c5ccccc5c4C[C@@H](C)N3CC(F)(F)F)c(F)c2)C(C)(C)C)cc1` [Example 95, (2S,4R)-1-((S)-2-(tert-Butyl)-14-(3,5-difluoro-4-((1R,3R)-3-methyl-2-(2,2,2-trifluoroethyl)-2,3,4,9-tetrahydro-1H-pyrido[3,4-b]indol-1-yl)phenoxy)-4-oxo-6,9,12-trioxa-3-azatetradecanoyl)-4-hydroxy-N-(4-(4-methylthiazol-5-yl)benzyl)pyrrolidine-2-carboxamide], the “ER degradation ≥ 90% at 0.3 μM” value is “••” and the DC50 turned out to be 0.4 nM.
